# Source: PubChem BioAssay AID624407 (The Scripps Research Institute Molecular Screening Center, 2012)
# Calls of active or inactive are those of the source. How the calls were made is not given here.
# Test system: parental CHO-K1 cells, HTRF counterscreen
# Assay: antagonist activity in parental CHO-K1 cells, late-stage follow-up, counter-screen for OX1R antagonist project, cell-based, HTRF, dose response (AID 624407)
row,Compound,IC50
1,COCCCNC(=O)CCC(=O)NNc1nc2ccccc2c2nc(-c3ccccc3)nn12,> 59.6 µM (inactive)
2,COc1cc(OC)c(-c2nc3ccccc3s2)cc1OC,> 59.6 µM (inactive)
3,CCOc1ccccc1C(=O)Nc1ccc2nc3n(c(=O)c2c1)CCCCC3,> 59.6 µM (inactive)
4,O=C(CN1C(=O)/C(=C\c2cccc(Br)c2)Oc2ccccc21)NCC1CCCO1 (stereo unspecified),> 59.6 µM (inactive)
5,CSc1cccc(N2CC(C(=O)NCCN3C(=O)S/C(=C\c4cccnc4)C3=O)CC2=O)c1 (stereo unspecified),3.37 µM
6,CCc1cc2c(SCC(=O)N(CC)c3c(N)n(Cc4ccccc4)c(=O)[nH]c3=O)ncnc2s1,> 59.6 µM (inactive)
7,CCSC1=C(C#N)C(c2ccccc2Cl)C(C(=O)c2cccs2)C(O)(C(F)(F)F)N1 (stereo unspecified),> 59.6 µM (inactive)
8,Cc1c(NS(=O)(=O)c2cccc(C(=O)OCC(=O)N(C)C3CCCCC3)c2)c(=O)n(-c2ccccc2)n1C,> 59.6 µM (inactive)
9,Cc1cccc(NC(=O)[C@@H]2CCCN2S(=O)(=O)c2ccc(Cl)cc2)c1,> 59.6 µM (inactive)
10,Cc1noc(C)c1COc1ccc(C(=O)OCC(=O)N2CC(=O)Nc3ccccc32)cc1,> 59.6 µM (inactive)
11,CN(N=Cc1cc([N+](=O)[O-])ccc1O)c1ccccc1,> 59.6 µM (inactive)
12,Cc1cccc(C=NNC(=O)c2cc3c(s2)-c2ccccc2CC3)c1,> 59.6 µM (inactive)
13,CCOC(=O)N1CCN(C(=O)CSc2ccc(-c3ccccc3)nn2)CC1,> 59.6 µM (inactive)
14,O=c1cc(CN2CC(O)Cc3ccc4ccccc4c32)nc2sccn12 (stereo unspecified),> 59.6 µM (inactive)
15,Cc1cc(Cl)ccc1OCCCC(=O)NCCN1C(=O)S/C(=C\c2cccnc2)C1=O,8.79 µM
16,COc1ccc(OC)c(S(=O)(=O)NCC(c2ccco2)N2CCc3ccccc32)c1 (stereo unspecified),> 59.6 µM (inactive)
17,CCN(CC)c1ccc(NC(=O)Cn2c(C(C)NC(=O)c3ccccc3)nc3ccccc32)cc1 (stereo unspecified),> 59.6 µM (inactive)
18,CCn1c(SCC(=O)Nc2ccc3c(c2)c2ccccc2n3CC)nnc1-c1cnccn1,> 59.6 µM (inactive)
19,CC(=C/c1ccccc1)/C=C1/SC(N2CCOCC2)=NC1=O,12.4 µM (inactive)
20,CSc1cccc(NC(=O)C2CCCN2S(=O)(=O)c2ccc(Br)s2)c1 (stereo unspecified),> 59.6 µM (inactive)
21,CCc1cc(C(=O)OCC(=O)N2CCC(c3ccccc3)=N2)sc1C,> 59.6 µM (inactive)
22,O=C(CSc1ccc(-c2ccccc2)nn1)c1cccs1,> 59.6 µM (inactive)
23,COc1cccc(/C=C2/Oc3ccccc3N(CC(=O)NCC3CCCO3)C2=O)c1 (stereo unspecified),> 59.6 µM (inactive)
24,Cc1ccccc1NC(=O)C1CCCN1S(=O)(=O)c1ccccc1C(F)(F)F (stereo unspecified),> 59.6 µM (inactive)
25,Cc1ccc(-c2csc3nnc(SCC(=O)Nc4nsc(-c5ccccc5)n4)n23)cc1,> 59.6 µM (inactive)
26,Fc1cccc(Nc2nc3ccccc3n3cnnc23)c1,> 59.6 µM (inactive)
